Measured values: patent publication US20250213500A1, “PHARMACEUTICAL COMPOSITION FOR IMPROVING LIFE QUALITY OF ELDERLY PEOPLE ON BASIS OF VITAMIN K2, PREPARATION METHOD THEREFOR AND USE THEREOF” (priority 2022, published 2025)

Tested on: tumor cells
Experiment: Tumor inhibition in mice subcutaneously inoculated with tumor cells
Type: in vivo
Details: 10 mg/kg once daily for 15 days; tumor weight vs saline group
Procedure: A total of 140 mice (equal number of males and females), approximately 3 months old, with a weight range of 15.41-18.47 g, were selected. Mice were subcutaneously inoculated with tumor cells, and their blood samples were drawn 24 hours later to test tumor markers and confirm the success of the mouse model establishment. A total of 126 mice confirmed with cancer (equal number of males and females) were selected and randomly divided into 6 groups, with 21 mice in each group (roughly equal number of males and females). These 6 groups were designated as Experimental Group 1, Experimental Group 2, Experimental Group 3, Experimental Group 4, Experimental Group 5, and Experimental Group 6. […] Tumor inhibition rate was calculated as follows: Tumor Inhibition Rate=(Average Tumor Weight in Control Group−Average Tumor Weight in Experimental Group)/Average Tumor Weight in Control Group.

CC(C)=CCC/C(C)=C/CC/C(C)=C/CC/C(C)=C/CC/C(C)=C/CC/C(C)=C/CC/C(C)=C/CC1=C(C)C(=O)c2ccccc2C1=O [MK-7, vitamin K2 (MK-7)]
Tumor Inhibition Rate: 35.67%

CCCc1nn(C)c2c(=O)[nH]c(-c3cc(S(=O)(=O)N4CCN(C)CC4)ccc3OCC)nc12 [sildenafil]
Tumor Inhibition Rate: 40.55%
